From US6566081B1, “Methods of identifying a compound which modulates the non-transcriptional non-map-kinase induced effects of steroid hormones” (The Brigham and Women's Hospital, Inc., priority 1999, dated 2003)
Entries after “also recorded” stand apart in the source; their conditions may differ. Numbered stars: 1 amine (or outer) side, 2 acyl side, 3 side chain; on linkers, the order of the positions; unused ones are H or OH. Bridge positions count the residues as written; N and C are the ends. Square brackets hold non-standard residues; d marks the D form. Peptide text beside a SMILES is read from it. I, II: the chains in the order shown. Actinocin(9to1) = Cc1c2oc3c(C)ccc(C(=O)[*:1])c3nc-2c(C(=O)[*:2])c(N)c1=O; NMeV = CN[C@H](C(=O)O)C(C)C; Sar = CNCC(=O)O

What was measured:
eNOS = eNOS activity assay (conversion of [3H]-arginine to [3H]-citrulline) in treated human endothelial cells; assay type: cell-based; details: for effect on E2-stimulated eNOS activity, later phase (≥15 min) or 30 min / effect on E2-stimulated eNOS activity, initial phase (first 5-10 min): E2 10 nM, wortmannin 30 nM, genistein 50 μM, PD98059 5 μM; for effect on E2-stimulated eNOS activity, later phase (≥15 min) or 30 min: ICI 10 μM, actinomycin D 2 h pretreatment
Experimental: Fetal bovine serum was deprived of estrogen by charcoal-stripping. Once grown to confluence the cells were replated on 1.5% gelatin-coated flasks at 20000 cells/cm^2. […] Cell number was assessed by direct cell counting of adherent cells, after trypsin detachment, in a Neubauer hemocytometer (VWR Scientifics). The percentage of cells excluding Trypan Blue after staining with the compound was taken as a measure of cell viability.
Endothelial cells were grown to confluence on 55 cm^2 culture dishes, treated according to the indicated conditions, and harvested in ice-cold PBS containing 1 mM EDTA. The cell lysates were pelleted in a microfuge (2 minutes, 13000 rpm, 4° C.) and subsequently homogenized in a buffer containing 25 mM Tris-HCl, pH 7.4, 1 mM EDTA, 1 mM EGTA. eNOS activity was determined by measuring the conversion of [^3H]-arginine to [^3H]-citrulline. Rat cerebellum extracts, containing elevated amounts of neuronal NOS, were used as positive controls, while endothelial cell extracts incubated in the presence of the competitive eNOS inhibitor L-NAME (1 mM) served as negative controls.
Human and bovine aortic endothelial cells were harvested enzymatically with Type IA collagenase (1 mg/mL).

NO release = experiment: Nitrite assay (NO accumulation from endothelial cells); assay type: cell-based, human; details: 30 min; E2/αE2 10 nM, insulin 100 nM, acetylcholine
Experimental: NO accumulation from serum-starved endothelial cells was determined by a modified nitrite assay using 2, 3 diaminonaphtalene as described previously.^33 Fluorescence of 1-(H)-naphtotriazole was measured with excitation and emission wavelengths of 365 and 450 nm, respectively. Standard curves were constructed with known amounts of sodium nitrite. Nonspecific fluorescence was determined in the presence of LNMA (3 mM).

PI3-kinase = PI3-kinase assay on p85 immunoprecipitates of endothelial cell lysates; assay type: cell-based, human; details: for stimulation of PI3-kinase activity: 20 min, E2/αE2 10 nM, insulin 100 nM
Experimental: PI3kinase activity in endothelial cell lysates was assayed using the borate thin layer chromatography method, as described.^34 Following a 6 h incubation in serum- and estrogen-deficient medium 199, endothelial cells were treated according to the indicated conditions, washed, and harvested in ice-cold lysis buffer (137 mM NaCl, 20 mM Tris-HCl, pH 7.4, 1 mM CaCl2, 1 mM Mg Cl2, 0.1 mM Na3VO4, 1% NP-40). After pelleting the cell debris, the supernatant was incubated for 1 hour at 4° C. with 5 μL of a rabbit antiserum directed against the p85 regulatory subunit of the PI3-kinase (Upstate Biotechnology, Lake Placid, N.Y.), and immunoprecipitated with the addition of 50 μL of a 1:1 slurry of protein A-agarose for 1 hour at 4° C. Following centrifugation, the immunoprecipitates were washed three times with lysis buffer, three times with 0.1 M Tris-HCl, pH 7.4, 5 mM LiCl, 0.1 mM Na3VO4, followed by two washes with 10 mM Tris-HCl, pH 7.4, 150 mM NaCl, 5 mM EDTA, 0.1 mM Na3VO4.
The immunoprecipitates were then mixed with 50 μL Tris-HCl, pH 7.4, 150 mM NaCl, 5 mM EDTA, 20 μg of phosphatidylinositol (Sigma, Saint Louis, Mo.), 10 μL 100 mM MgCl2 and 5 μL of a 0.88 mM ATP, 20 mM MgCl2 solution, containing 30 μCi of [γ-^32P]ATP (3000 Ci/mmol; NEN Life Science Products, Boston, Mass.). […] The phospholipids were extracted with 160 μL of chloroform/methanol (1:1, v/v). 50 μL of the organic phase, containing the labeled PI3-kinase products were separated by borate thin layer chromatography on glass-backed Silica Gel 60 plates (EM Separations, Gibbstown, N.J.) pretreated with a solution containing 25 mM trans-1,2-diaminocyclohexane-N,N,N′N′-tetraacetic acid (CDTA, Sigma, Saint Louis, Mo.), 66% (v/v) ethanol and 0.06 N NaOH, dried for 1 hour and then baked at 100° C. for 15 minutes. The chromatography was developed with a solution containing 37.5% (v/v) methanol, 30% (v/v) chloroform, 22.5% (v/v) pyridine (Sigma, Saint Louis, Mo.), 1.33% (v/v) formic acid, […] boric acid and 8.5 mM butylated hydroxytoluene (Sigma, Saint Louis, Mo.), briefly dried and exposed to autoradiography.

Akt/PKB [1] = experiment: Immunoblotting of Akt phosphorylation (Thr 308, Ser 473); assay type: cell-based, human; details: E2/αE2 10 nM, insulin 100 nM, 20 min
Experimental: After the different treatments, serum-starved endothelial cells were rinsed once with ice-cold PBS before addition of the lysis buffer (100 mM Tris-HCl, pH 6.8, 4% SDS, 20% glycerol, 1 mM sodium orthovanadate, 1 mM NaF, and 1 mM phenylmethylsulfonylfluoride) to the dishes on an ice tray. The cell lysates were scraped, boiled, and centrifuged for 2 min at 13000 rpm. Total cell lysates (40 μg of protein) and low range molecular weight markers (BIO-RAD, Hercules, Calif.) were separated by SDS-polyacrylamide gel electrophoresis (12% running, 4% stacking), electrophoretically transferred to polyvinylidene fluoride membranes (Immobilon P, 0.45 μm pore size) and incubated overnight at 4° C. with blocking solution (5% skim milk in TBS—0.1% Tween 20). Affinity-purified rabbit antibodies (0.4 μg of IgG/ml) vs. Akt, (Ser 473) phospho-Akt or (Thr 308) phospho-Akt (New England BioLabs, Beverly, Mass.), Erk1/2, (Tyr 204) phospho-Erk-1/-2 (Calbiochem, San Diego, Calif.) were incubated with the membranes overnight at 4° C. in TBS—0.1% Tween 20 containing 5% BSA. The blots were washed three times with TBS—0.1% Tween 20 and then treated with donkey anti-rabbit antibody (1:4000 dilution) coupled to horseradish peroxidase. Immunodetection was accomplished using the enhanced chemoluminescence kit (ECL Kit, Amersham Corp.).

Akt/PKB [2] = experiment: Akt kinase assay (immunoprecipitated Akt, GSK-3 peptide); assay type: cell-based, human; details: E2/αE2 10 nM, insulin 100 nM, 20 min
Experimental: Immunoprecipitated Akt kinase activity was assayed on endothelial cell lysates by using the Aktl/PKBα immunoprecipitation kinase assay kit (Upstate Biotechnology, Lake Placid, N.Y.). Endothelial cells were starved in phenol red-free199 medium with 0.4% estrogen-deprived FBS, treated, washed, and then harvested in ice-cold Buffer A (50 mM Tris-HCl, pH 7.5, 1 mM EDTA, 1 mM EGTA, […] Na3VO4, 0.1% (v/v) 2-mercaptoethanol, 1% Triton X-100, 50 mM sodium fluoride, 5 mM sodium pyrophosphate, 10 mM sodium glycerophosphate, 0.1 mM PMSF, 1 μg/mL of aprotinin, pepstatin, leupeptin and 1 μM microcystin). The cleared cell lysates were incubated for 1 hour at 4° C. with 4 μg/tube of anit-Akt1/PKBα PH domain immunoaffinity purified sheep IgG, after which 50 μL of a 1:1 (v/v) protein G-agarose slurry was added for an additional hour of incubation at 4° C. After centrifugation, the immunoprecipitates were washed three times with Buffer A containing 0.5 M NaCl, then two times with Buffer B (50 mM Tris-HCl, pH 7.5, 0.03% (w/v) Brij-35, 0.1 mM EGTA, 0.1% (v/v) 2-mercaptoethanol), and finally twice with 1×Assay Buffer (20 mM MOPS, pH 7.2, 25 mM β-glycerol phosphate, 5 mM EGTA, 1 mM Na3VO4, 1 mM DTT).
The immunoprecipitates were resuspended in 10 μL of ice-cold 1×Assay Buffer, and were sequentially added: 10 μL of 40 μM PKA inhibitor peptide ([…]-NH2—corresponding to residues 7-23 of human PKA inhibitor), 10 μL of Akt/PKB specific substrate peptide (100 μM) (RPRAATF—corresponding to the phosphorylation site of glycogen synthase kinase-3, specifically targeted by Akt/PKB, but not by other protein kinases such as Rsk-2 and p70 S6 kinase), and 10 μL of [γ-^32P]ATP stock solution (1×Assay Buffer with 500 μM ATP, 75 mM MgCl2, containing 1 μCi/μL [γ^32-P]ATP, 3000 Ci/mmol). The reaction was incubated at 37° C. for 30 minutes, after which 40 μL of the supernatant was mixed with 20 μL of 40% TCA and incubated for 5 minutes at room temperature. 40 μL of each final fraction were spotted onto the center of a 2 cm×2 cm P81 phosphocellulose paper. The assay squares were washed three times with 0.75% phosphoric acid for five minutes at room temperature, then once with acetone. The squares were then transferred to vials containing a liquid scintillation cocktail and read in a scintillation counter. Blank reaction for the detection of the unspecific background were performed by substituting the cell lysate with Buffer A at the beginning of the procedure, and aspecific endogenous phosphorylation of proteins in the sample extract was estimated by substituting in some samples 1×Assay Buffer for the Akt/PKB specific substrate peptide.

ER-α / PI3-kinase p85α = biological target: T1, ER-α / PI3-kinase p85α (Homo sapiens, UniProt P03372); experiment: ER-α immunoprecipitation: co-precipitated p85α and associated PI3-kinase activity; assay type: cell-based; details: ICI 10 μM, wortmannin, tamoxifen 1 μM, PD 98059 5 μM, actinomycin D 5 μM
T1 construct: endogenous in cells; host or cells: human endothelial cells (HSVEC), anti-ERα immunoprecipitate
T1 sequence (P03372 1-595): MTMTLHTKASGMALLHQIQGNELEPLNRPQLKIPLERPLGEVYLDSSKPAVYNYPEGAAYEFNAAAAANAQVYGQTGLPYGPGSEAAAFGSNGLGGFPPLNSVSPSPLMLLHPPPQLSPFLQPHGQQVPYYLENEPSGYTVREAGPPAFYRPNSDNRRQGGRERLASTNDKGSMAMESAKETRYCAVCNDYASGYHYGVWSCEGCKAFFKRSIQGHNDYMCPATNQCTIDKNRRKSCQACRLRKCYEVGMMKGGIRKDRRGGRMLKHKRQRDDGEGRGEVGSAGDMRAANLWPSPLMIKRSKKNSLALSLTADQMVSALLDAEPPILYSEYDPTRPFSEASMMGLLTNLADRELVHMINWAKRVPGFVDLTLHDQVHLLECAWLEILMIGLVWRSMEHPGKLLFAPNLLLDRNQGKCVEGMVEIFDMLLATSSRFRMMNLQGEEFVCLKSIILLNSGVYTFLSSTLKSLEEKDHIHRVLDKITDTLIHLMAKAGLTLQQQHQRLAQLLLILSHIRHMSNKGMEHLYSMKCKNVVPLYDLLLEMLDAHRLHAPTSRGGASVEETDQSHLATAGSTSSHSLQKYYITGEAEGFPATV

| Structure (SMILES) | stimulation of eNOS activity by the substance alone (eNOS; E2/αE2 10 nM, insulin 100 nM, 30 min) | stimulation of NO release / production (nitrite accumulation) (NO release) | stimulation of PI3-kinase activity (PI3-kinase) | stimulation of PI3-kinase activity (PI3-kinase; listed as αE2) | Akt Ser 473 phosphorylation (Akt/PKB [1]) | Akt threonine (Thr 308) phosphorylation (Akt/PKB [1]) | stimulation of Akt kinase activity (words) (Akt/PKB [2]) | stimulation of Akt kinase activity (words) (Akt/PKB [2]; listed as 17a-estradiol) | effect on E2-stimulated eNOS activity, later phase (≥15 min) or 30 min (eNOS) | effect on insulin-induced eNOS activity (eNOS; insulin 100 nM, 30 min) | effect on basal eNOS activity, substance alone (eNOS; no E2) | effect on E2-stimulated ER-α-associated PI3-kinase activity (ER-α / PI3-kinase p85α) | effect on E2-stimulated eNOS activity, later phase (≥15 min) or 30 min (eNOS; listed as Genistein) | effect on E2-stimulated eNOS activity, initial phase (first 5-10 min) (eNOS) | effect on E2-stimulated eNOS activity, initial phase (first 5-10 min) (eNOS; listed as Genistein) | effect on E2-induced PI3-kinase activation (PI3-kinase; E2 10 nM 20 min, ICI 10 μM, wortmannin 30 nM) |
| --- | --- | --- | --- | --- | --- | --- | --- | --- | --- | --- | --- | --- | --- | --- | --- | --- |
| C[C@]12CC[C@@H]3c4ccc(O)cc4CC[C@H]3[C@@H]1CC[C@H]2O [17α-estradiol] | no effect; also recorded: inability | very low effect; also recorded: inability | ineffective; also recorded: inability | lack | ineffective | ineffective; also recorded: minimal increase | ineffective | small increase | – | – | – | – | – | – | – | – |
| Cc1c2oc3c(C)ccc(C(=O)N[C@@H]4C(=O)N[C@H](C(C)C)C(=O)N5CCC[C@H]5C(=O)N(C)CC(=O)N(C)[C@@H](C(C)C)C(=O)O[C@@H]4C)c3nc-2c(C(=O)N[C@@H]2C(=O)N[C@H](C(C)C)C(=O)N3CCC[C@H]3C(=O)N(C)CC(=O)N(C)[C@@H](C(C)C)C(=O)O[C@@H]2C)c(N)c1=O [actinomycin D] (I: T[dV]P[Sar][NMeV] / II: T[dV]P[Sar][NMeV]; ester I:1-I:C, II:1-II:C; linker I:N-II:N via Actinocin(9to1)) | – | – | – | – | – | – | – | – | did not affect; also recorded: no effect | did not affect; also recorded: no inhibitory effect | nor had any effects by itself; also recorded: no effect | not | – | – | – | – |
| O=c1c(-c2ccc(O)cc2)coc2cc(O)cc(O)c12 [genistein] | – | – | – | – | – | – | – | – | only minimally affected; also recorded: not the later phase; also recorded: little or no inhibitory effect | – | – | – | do not block | able to block; also recorded: significantly blocked | blunt | only minimally affected |
